According to patent US7763656B2, “Use of Acetylamino benzoic acid compounds for nonsense suppression and the treatment of disease” (PTC Therapeutics, Inc., priority 2002, dated 2010):
Values joined by “and” are separate entries in the source; they are usually repeats but may differ in a detail not shown here. Equal entries are not always repeated.

Columns and labels:
[1] = system: luciferase reporter construct containing a UGA premature termination codon stably transfected in 293T Human Embryonic Kidney cells; test: cell-based luciferase reporter assay (UGA premature termination codon); details: ranking combining potency (minimum concentration to produce protein) and efficacy (maximum protein produced); 293T cells, UGA luciferase reporter; gentamicin internal standard
Method: Melting points in Table 1 were obtained on an Electrothermal MeltTemp apparatus and are uncorrected. Activity measurements in Table 1 were performed in a cell-based luciferase reporter assay (as described in Section 4.2) comprising a luciferase reporter construct containing a UGA premature termination codon that was stably transfected in 293T Human Embryonic Kidney cells. Gentamicin, a small molecule known to allow readthrough of premature termination codons, was used as an internal standard. Activity measurements are based on the qualitative relation between the minimum concentration of compound required to produce a given protein in a cell (potency) and the maximum amount of protein produced by the cell (efficacy). Potency and efficacy activities are ranked as either extremely high, very high or significant. The combination of these activities is used to determine the activity ranking.
Two assays were developed for use in high throughput screens to identify small molecules that promote nonsense suppression. Each assay utilized luciferase because it is a functional reporter gene assay (light is only produced if the protein is functional) and it is extremely sensitive (Light intensity is proportional to luciferase concentration in the nM range). The first assay is a cell-based luciferase reporter assay and the second is a biochemical assay consisting of rabbit reticulocyte lysate and a nonsense-containing luciferase reporter mRNA. In the cell-based assay, a luciferase reporter construct containing a UGA premature termination codon was stably transfected in 293T Human Embryonic Kidney cells. In the biochemical assay, mRNA containing a UGA premature termination codon was used as a reporter in an in vitro translation reaction using rabbit reticulocyte lysate supplemented with tRNA, hemin, creatine kinase, amino acids, KOAc, Mg(OAc)2, and creatine phosphate. […] Synthetic mRNA was prepared in vitro using the T7 promoter and the MegaScript in vitro transcription kit (Ambion).
To determine whether compounds also function in vivo, a stable cell line harboring the UGA nonsense-containing luciferase gene was treated with selected compounds. Cells were grown in standard medium supplemented with 1% penicillin-streptomycin (P/S) and 10% fetal bovine serum (FBS) to 70% confluency and split 1:1 the day before treatment. On the following day, cells were trypsinized and 40,000 cells were added to each well of a 96-well tissue culture dish. Serial dilutions of each compound were prepared to generate a six-point dose response curve spanning 2 logs (30 μM to 0.3 μM). The final concentration of the DMSO solvent remained constant at 1% in each well. Cells treated with 1% DMSO served as the background standard, and cells treated with gentamicin served as a positive control.

melting point	Structure (SMILES)	Activity [1]
233 to 236 °C	O=C(COc1ccc([N+](=O)[O-])cn1)Nc1cccc(C(=O)O)c1 [Compound 71, 3-[2-(5-Nitro-pyridin-2-yloxy)-acetylamino]-benzoic acid]	0
174 to 175 °C	Cc1cc(OCC(=O)Nc2ccc(Cl)c(C(=O)O)c2)ccc1C(C)C [Compound 57, 2-Chloro-5-[2-(4-isopropyl-3-methyl-phenoxy)-acetylamino]-benzoic acid]	
161 to 163 °C	Cc1ccc(C(C)C)c(OC(C)C(=O)Nc2cccc(C(=O)O)c2)c1 (stereo not shown) [Compound 41, 3-[2-(2-Isopropyl-5-methyl-phenoxy)-propionylamino]-benzoic acid]	
166 to 167 °C	CC(C)c1cccc(OCC(=O)Nc2cccc(C(=O)O)c2)c1 [Compound 6, 3-[2-(3-isopropyl-phenoxy)-acetylamino]-benzoic acid]	
197 to 198 °C	Cc1cc(OCC(=O)Nc2cccc(C(=O)O)c2)ccc1Cl [Compound 25, 3-[2-(4-chloro-3-methyl-phenoxy)-acetylamino]-benzoic acid]	
284 to 285 °C	O=C(COc1ccc(Nc2ccc([N+](=O)[O-])cn2)cc1)Nc1cccc(C(=O)O)c1 [Compound 63, 3-{2-[4-(5-Nitro-pyridin-2-ylamino)-phenoxy]-acetylamino}-benzoic acid]	
205 to 209 °C	O=C(COc1ccc(Cc2ccccc2)cc1)Nc1cccc(C(=O)O)c1 [Compound 69, 3-[2-(4-Benzyl-phenoxy)-acetylamino]-benzoic acid]	
209 to 211 °C	CCc1ccc(OCC(=O)Nc2cccc(C(=O)O)c2)cc1 [Compound 18, 3-[2-(4-ethyl-phenoxy)-acetylamino]-benzoic acid]	
214 to 215 °C	O=C(COc1ccc(Nc2ccccc2)cc1)Nc1cccc(C(=O)O)c1 [Compound 65, 3-[2-(4-Phenylamino-phenoxy)-acetylamino]-benzoic acid]	
245 to 246 °C	O=C(COc1ccc(-c2ccccc2)cc1)Nc1cccc(C(=O)O)c1 [Compound 13, 3-[2-(biphen-4-yloxy)-acetylamino]-benzoic acid]	
161 to 162 °C	Cc1cc(OCC(=O)Nc2cccc(C(=O)O)c2Cl)ccc1C(C)C [Compound 30, 2-chloro-3-[2-(4-isopropyl-3-methyl-phenoxy)-acetylamino]-benzoic acid]	
188 to 189 °C	Cc1ccc(C(=O)O)cc1NC(=O)COc1ccc(C(C)C)c(C)c1 [Compound 48, 3-{2-(4-Isopropyl-3-methyl-phenoxy)-acetylamino]-4-methyl-benzoic acid]	
242 to 244 °C	O=C(COc1ccc(C#Cc2ccccc2)cc1)Nc1cccc(C(=O)O)c1 [Compound 28, 3-[2-(4-phenylethynyl-phenoxy)-acetylamino]-benzoic acid]	
164 to 165 °C	CC(C)c1ccc(OC2CCN(c3cccc(C(=O)[O-])c3)C2=O)cc1.[Na+] (stereo not shown) [Compound 34, 3-[3-(4-Isopropyl-phenoxy)-2-oxo-pyrrolidin-1-yl]-benzoic acid Sodium Salt]	
202 to 205 °C	O=C(COc1ccc(Oc2ccccc2)cc1)Nc1cccc(C(=O)O)c1 [Compound 70, 3-[2-(4-Phenoxy-phenoxy)-acetylamino]-benzoic acid]	
262 to 263 °C	CC(C)c1ccc(C(=O)CC(=O)Nc2cccc(C(=O)O)c2)cc1 [Compound 29, 3-[3-(4-isopropyl-phenyl)-3-oxo-propionylamino]-benzoic acid]	
203 to 204 °C	O=C(COc1ccc2c(c1)CCC2)Nc1cccc(C(=O)O)c1 [Compound 19, 3-[2-(indan-5-yloxy)-acetylamino]-benzoic acid]	
209 to 212 °C	O=C(COc1ccc(CO)cc1)Nc1cccc(C(=O)O)c1 [Compound 55, 3-[2-(4-Hydroxymethyl-phenoxy)-acetylamino]-benzoic acid]	
175 to 178 °C	O=C(O)c1cccc(N2CCC(Oc3ccc(Oc4ccc(C(F)(F)F)cc4)cc3)C2=O)c1 (stereo not shown) [Compound 37, 3{2-Oxo-3-[4-(4-trifluoromethyl-phenoxy)-phenoxy]-pyrrolidin-1-yl}-benzoic acid]	

melting point	Structure (SMILES)	Activity [1]
211 to 213 °C	Cc1ccc(C(C)C)c(OCC(=O)Nc2cccc(C(=O)O)c2)c1 [Compound 40, 3-[2-(2-Isopropyl-5-methyl-phenoxy)-acetylamino]-benzoic acid]	
186 to 187 °C	Cc1cc(OC(C)C(=O)Nc2cccc(C(=O)O)c2)ccc1C(C)C (stereo not shown) [Compound 47, 3-[2-(4-Isopropyl-3-methyl-phenoxy)-propionylamino]-benzoic acid]	
178 to 179 °C	CC(C)c1ccccc1SCC(=O)Nc1cccc(C(=O)O)c1 [Compound 3, 3-[2-(2-isopropyl-phenylsulfanyl)-acetylamino]-benzoic acid]	
185 to 187 °C	Cc1ccc(OC2CCN(c3cccc(C(=O)O)c3)C2=O)cc1 (stereo not shown) [Compound 84, 3-[3-(4-Methyl-phenoxy)-2-oxo-pyrrolidin-1-yl]-benzoic acid]	
218 to 220 °C	Cc1cc(OCC(=O)Nc2cc(C(=O)O)ccc2Cl)ccc1C(C)C [Compound 31, 4-chloro-3-[2-(4-isopropyl-3-methyl-phenoxy)-acetylamino]-benzoic acid]	
200 to 201 °C	Cc1cccc(OCC(=O)Nc2cccc(C(=O)O)c2)c1 [Compound 42, 3-[2-(5-Methyl-phenoxy)-acetylamino]-benzoic acid]	
185 to 186 °C	CCCc1ccc(OCC(=O)Nc2cccc(C(=O)O)c2)cc1 [Compound 16, 3-[2-(4-propyl-phenoxy)-acetylamino]-benzoic acid]	
170 to 171 °C	CC(C)c1ccc(COC2CCN(c3cccc(C(=O)O)c3)C2=O)cc1 (stereo not shown) [Compound 79, 3-[3-(4-Isopropyl-benzyloxy)-2-oxo-pyrrolidin-1-yl]-benzoic acid]	
223 to 224 °C	O=C(COc1ccc2ccccc2c1)Nc1cccc(C(=O)O)c1 [Compound 52, 3-[2-(Naphthalen-2-yloxy)-acetylamino]-benzoic acid]	
171 to 174 °C	CC(C)c1ccc(OCC(=O)Nc2cccc(C(=O)O)c2)cc1 [Compound 7, 3-[2-(4-isopropyl-phenoxy)-acetylamino]-benzoic acid]	
267 to 268 °C	O=C(COc1ccc(Cc2nn[nH]n2)cc1)Nc1cccc(C(=O)O)c1 [Compound 78, 3-{2-[4-(2H-Tetrazol-5-ylmethyl)-phenoxy]-acetylamino}-benzoic acid]	
220 to 221 °C	Cc1ccccc1-c1ccc(OCC(=O)Nc2cccc(C(=O)O)c2)cc1 [Compound 9, 3-[2-(2’-methyl-biphen-4-yloxy)-acetylamino]-benzoic acid]	
210 to 213 °C	N#Cc1ccc(OCC(=O)Nc2cccc(C(=O)O)c2)cc1 [Compound 62, 3-[2-(4-Cyano-phenoxy)-acetylamino]-benzoic acid]	
190 to 191 °C	Cc1c(F)cc(OC2CCN(c3cccc(C(=O)O)c3)C2=O)c(F)c1F (stereo not shown) [Compound 85, 3-[2-Oxo-3-(2,3,5-trifluoro-4-methyl-phenoxy)-pyrrolidin-1-yl]-benzoic acid]	
237 to 238 °C	O=C(COc1ccc(Nc2ccc([N+](=O)[O-])cc2[N+](=O)[O-])cc1)Nc1cccc(C(=O)O)c1 [Compound 67, 3-{2-[4-(2,4-Dinitro-phenylamino)-phenoxy]-acetylamino}-benzoic acid]	
190 to 191 °C	O=C(O)c1cccc(N2CCC(Oc3ccc(OC(F)(F)F)cc3)C2=O)c1 (stereo not shown) [Compound 86, 3-[2-Oxo-3-(4-trifluoromethoxy-phenoxy)-pyrrolidin-1-yl]-benzoic acid]	
242 to 244 °C	O=C(COc1ccc(Cl)c(F)c1)Nc1cccc(C(=O)O)c1 [Compound 54, 3-[2-(4-Chloro-3-fluoro-phenoxy)-acetylamino]-benzoic acid]	
191 to 194 °C	O=C(COc1ccc2c(c1)OCO2)Nc1cccc(C(=O)O)c1 [Compound 53, 3-[2-(Benzo[1,3]dioxol-5-yloxy)-acetylamino]-benzoic acid]	
260 to 262 °C	O=C(COc1ccc(NC(=O)c2ccccc2)cc1)Nc1cccc(C(=O)O)c1 [Compound 64, 3-[2-(4-Benzoylamino-phenoxy)-acetylamino]-benzoic acid]	

Structure (SMILES)	melting point	Activity [1]
Cc1cc(OCC(=O)Nc2cccc(C(=O)O)c2)ccc1C(C)C [Compound 4, 3-[2-(4-isopropyl-3-methyl-phenoxy)-acetylamino]-benzoic acid]	191 to 192 °C and 188 to 189 °C	
